Results: US20100087411A1, “SUBSTITUTED SAPOGENINS AND THEIR USE” (Phytopharm PLC, priority 2000, published 2010)

Tested on: m2 receptor
Assay: Expression of m2 receptors on CHO cells transfected with DNA for the m2 receptor (tritiated QNB binding)
Type: cell-based
Design: key: Active: “active” means increase over the control; Inactive: “inactive” means same effect as control
Conditions: DMSO control, range of final concentrations
Source text: Substituted sapogenins of the present invention have also been tested for activity in a number of in-vitro assays. The assays/experiments that were considered of key importance in determining possible activity in the elevation of membrane bound receptor numbers were as follows: • Chinese hamster ovary (CHO) cells transfected with the a DNA fragment coding for a muscarinic receptor. The cell line used for the majority of the experiments was a cell line expressing the m2 receptor. The methods and the results of these experiments are now described in turn.
The effects of various compounds on the expression of m2 receptors on CHO cells transfected with DNA for the m2 receptor were investigated. Receptor numbers were assayed using tritiated QNB binding and subtracting non-specific binding. Compounds were dissolved in DMSO and DMSO was used as a control. Compounds were tested at a range of final concentrations. Compounds were also tested in the presence and absence of tamoxifen to try to distinguish an oestrogen receptor mediated mechanism The results are summarised in the Table I below.

**Q.** Which “Effect on receptor expression” value does the source give for `C[C@@H]1CC[C@@]2(OC1)O[C@H]1C[C@H]3[C@@H]4CC[C@@H]5CC(F)(F)CC[C@]5(C)[C@H]4CC[C@]3(C)[C@H]1[C@@H]2C` [3,3-difluoro-5β,20α,22α,25R-spirostane] here?
**A.** Active

**Q.** `C[C@@H]1CC[C@@]2(OC1)O[C@H]1C[C@H]3[C@@H]4CC[C@@H]5C[C@H](N)CC[C@]5(C)[C@H]4CC[C@]3(C)[C@H]1[C@@H]2C` [3α-amino-5β,20α,22α,25R-spirostane] was tested. Which “Effect on receptor expression” value did it give?
**A.** Active

**Q.** `CC1CCC2(OC1)OC1CC3C4CCC5CC(N=[N+]=[N-])CCC5(C)C4CCC3(C)C1C2C` (stereo not drawn) [3α-azido-5β,20α,22α,25R-spirostane] was tested. Which “Effect on receptor expression” value did it give?
**A.** Active

**Q.** For `C[C@@H]1CC[C@@]2(OC1)O[C@H]1C[C@H]3[C@@H]4CC[C@H]5C[C@H](F)CC[C@]5(C)[C@H]4CC[C@]3(C)[C@H]1[C@@H]2C` [3α-fluoro-5α,20α,22α,25R-spirostane], which “Effect on receptor expression” value is on record?
**A.** Inactive

**Q.** For `C[C@@H]1CC[C@@]2(OC1)O[C@H]1C[C@H]3[C@@H]4CC[C@@H]5C[C@H](NS(C)(=O)=O)CC[C@]5(C)[C@H]4CC[C@]3(C)[C@H]1[C@@H]2C` [3α-methylsulphonylamino-5β,20α,22α,25R-spirostane], which “Effect on receptor expression” value is on record?
**A.** Active

**Q.** For `C[C@@H]1CC[C@@]2(OC1)O[C@H]1C[C@H]3[C@@H]4CC[C@@H]5C[C@@H](F)CC[C@]5(C)[C@H]4CC[C@]3(C)[C@H]1[C@@H]2C` [3β-fluoro-5β,20α,22α,25R-spirostane], which “Effect on receptor expression” value is on record?
**A.** Active

**Q.** How did the “Effect on receptor expression” value turn out when `C[C@H]1[C@H]2[C@H](C[C@H]3[C@@H]4CC[C@@H]5C[C@@H](O)CC[C@]5(C)[C@H]4CC[C@]23C)O[C@]12CCC(C)(C)CO2` [25-methyl-5β,20α,22α-spirostane-3β-ol] was run?
**A.** Active
